From patent US6852750B2, “Benzenedicarboxylic acid derivatives” (Guilford Pharmaceuticals, Inc., priority 2000, dated 2005) come the findings set out here.

The test system of one experiment is cortical cell cultures. Put plainly: In vitro assay on ischemia (cortical cell cultures, potassium cyanide and 2-deoxyglucose). Format: cell-based. The note with it: 1 h, read-out: EC50 (neuroprotective effect). As for the experimental part:
In Vitro Assay on Ischemia
To examine the in vitro effect of the compounds of formula I on ischemia, cortical cell cultures were treated with various compounds of formula I during an ischemic insult utilizing potassium cyanide and 2-deoxyglucose, and for one hour thereafter (for experimental details, see Vomov et al., J. Neurochem., Vol. 65, No. 4, pp. 1681-1691 (1995)).

Experiment [1] concerns BB/W diabetic rats. Put plainly: Withdrawal latency in BB/W diabetic rats (Hargreaves). Format: in vivo. The note with it: 10 mg/kg i.p. daily, vs diabetic vehicle-treated rats, from 4 weeks through six months, FIG. 17. From the text:
(§1) Male BB/W rats (BRI, Mass) spontaneously develop a cell mediated autoimmune destruction of pancreatic B cells, resulting in onset of insulin-dependent (Type I) diabetes (Awata and Guberski et al., Endocrinology 1995 December; 136(12):5731-5). […] This renders them valuable for experimental trials of new compounds for future treatments of this major disorder. In the present study, Compound D and Compound A were examined for their ability to alter the progression of diabetic neuropathy. The rats received daily injection of Compound D or Compound A (10 mg/kg i.p.) or vehicle, starting at the onset of diabetes (hyperglycemia) and up to 6 months thereafter. Another group of non-diabetic rats also receiving vehicle were tested. All animals were continuously monitored for body weight, urine volume, blood sugar and glycated haemoglobin. In the first month of the study, all animals were tested for thermal nociception in a Hargreaves apparatus, weekly. After the first month this was done biweekly and then monthly. The testing consists of directing an infrared heat source onto the dorsal surface of the rat hindpaw and noting the time taken for the animal to remove its paw (for detailed method, see Hargreaves et al., J. Biol. Chem. 1988 Dec. 25; 263(36):19392-7). Each animal was tested 8 times and the mean withdrawal latency noted.

The test system of another experiment is STZ-diabetic rats. Put plainly: In vivo assay on diabetic neuropathy: motor and sensory nerve conduction velocity in STZ-diabetic rats. The note with it: vs diabetic controls; for sensory nerve conduction velocity / motor nerve conduction velocity: 10 mg/kg daily; for sensory nerve conduction velocity: significant after 8 weeks (Compound A) or 12 weeks (Compound D); for motor nerve conduction velocity: significant after 12 weeks. The method, then: In Vivo Assay of NAALADase Inhibitors on Diabetic Neuropathy
Motor and sensory nerve conduction velocity was also measured in STZ-diabetic animals after 4, 8 and 12 weeks of treatment. For detailed method, see De Koning et al., Peptides 1987 May-Jun. 1987; 8(3):415-22. Briefly, stimulating needle electrodes were inserted close to the sciatic and tibial nerves with recording electrodes being placed subcutaneously over the distal foot muscles, in anesthetized rats.

Experiment [2] relates to BB/W diabetic rats. In words: Nerve conduction velocity in BB/W diabetic rats. In kind it is in vivo. The note with it: 10 mg/kg daily, vs diabetic vehicle controls, from 8 weeks to six months, FIG. 18.
Text: as §1, with “The testing consists of directing an infrared heat source onto the dorsal surface of the rat hindpaw and noting the time taken for the animal to remove its paw (for detailed method, see Hargreaves et al., J. Biol. Chem. 1988 Dec. 25; 263(36):19392-7). Each animal was tested 8 times and the mean withdrawal latency noted.” left out
Nerve conduction velocity was also measured every two weeks through the first eight weeks of treatment and every month thereafter through to the six months of treatment. […]

Experiment [3] concerns STZ-induced diabetic rats. In words: In vivo assay on neuropathic pain, STZ-diabetic rats (Hargreaves thermal nociception). Details: species or system Sprague-Dawley rats. The note with it: 10 mg/kg i.p. daily, FIGS. 13A and 13B. The method, then:
In Vivo Assay of NAALADase Inhibitors on Neuropathic Pain
Male Sprague-Dawley rats (200-225 g) were rendered diabetic by intravenous administration of streptozotocin (“STZ”, 70 mg/kg in phosphate buffered saline). Diabetic animals were divided into five groups: one group receiving Compound A (10 mg/kg or 1 mg/kg), Compound D (10 mg/kg or 1 mg/kg) or vehicle. Another group of animals (non-STZ treated) served as non-diabetic controls. Drug/vehicle treatment was started in diabetic animals 45 days post-STZ administration. STZ-induced diabetic rats were tested for sensitivity to a heat source as soon as blood glucose levels rose to 320 mg/dl or above (30 days post STZ). The rats were then acclimated to the Hargreaves apparatus and thermal nociception was monitored using an infrared heat source directed into the dorsal surface of the hindpaw, and the time taken for the animal to remove its paw noted to the nearest 0.1 seconds (for detailed method, see Hargreaves et al., J. Biol. Chem. (1988) 263(36):19392-7). The intensity of the beam source was adjusted such that the mean latency for control animals (non-STZ treated) was approximately 10 seconds. Each animal was tested 8 times and the mean difference score (between mean non-diabetic control latency and mean diabetic latency) are graphically presented in FIGS. 13A and 13B.

The subject of experiment [4] is TGF-β1. Put plainly: Effect on TGF-β1 in in vitro ischemia model. In kind it is cell-based. The note with it: ischemic cell cultures, FIG. 1. The method, then: (§2) Effect of NAALADase Inhibition on TGF-β in In Vitro Ischemia Model
(§3) A NAALADase inhibitor, Compound C, was added to ischemia cell cultures to determine its effect on TGF-β levels during stroke. The experimental data, set forth

Experiment [5] relates to rats subjected to middle cerebral artery occlusion. Put plainly: Neuroprotective effect in MCAO rats with TGF-β neutralizing antibodies. In kind it is in vivo. The note with it: FIG. 5. From the text: The effect of TGF-β neutralizing antibodies on the neuroprotective effect of Compound C was also studied in rats following MCAO.
One of ordinary skill in the art can appreciate that the regulation of TGF-β's by NAALADase inhibitors may have implications not only in stroke, but also in other diseases, disorders and conditions including, without limitation, neurological diseases, psychiatric diseases, demyelinating diseases, prostate cancer, inflammation, and angiogenesis.

The subject of a further experiment is ischemic cell cultures. In words: Neuroprotective effect in ischemic cell cultures with neutralizing antibodies. Format: cell-based. The note with it: in vitro ischemia model. As for the experimental part: TGF-β neutralizing antibodies were then added to the ischemic cell cultures.
Experiment [6] concerns chronic constrictive injury-induced rats. In words: Neuropathic pain progression, CCI model (sciatic nerve ligation, Hargreaves). In kind it is in vivo. The note with it: 50 mg/kg i.p. daily starting 10 days post surgery, vs vehicle, significant from 11 days of treatment, FIG. 14. As for the experimental part: In Vivo Assay of NAALADase Inhibitors on Neuropathic Pain Progression CCI Model
Sciatic nerve ligation, consisting of 4 ligatures tied loosely around the sciatic nerve at 1 mm intervals proximal to the nerve trifurcation, was performed on rats. […] The rats were habituated to a Hargreaves apparatus. An infrared heat source was directed onto the dorsal surface of each rat's hindpaws and the time taken for the rat to withdraw its paws was noted. The difference in scores between the latency of the response for the paw on the operated side versus the paw on the unoperated control side was determined.
Animals received Compound C (50 mg/kg i.p. daily) or vehicle, starting 10 days post surgery. […] Normal (unoperated) rats had approximately equal latencies for both paws. This effect was significant starting at 11 days of drug treatment and persisted through to the end of the study (for 21 days of daily dosing).

Experiment [7] deals with TGF-β1. Put plainly: TGF-β1 levels in rats subjected to MCAO (microdialysis). Format: in vivo. The note with it: FIG. 6.
The test system of another experiment is TGF-β2. In words: Effect on TGF-β2 in in vitro ischemia model. Format: cell-based. The note with it: ischemic cell cultures, FIG. 2. As for the experimental part: as §2, §3

As to `O=C(O)c1ccc(OCCCSSCCCOc2ccc(C(=O)O)cc2C(=O)O)c(C(=O)O)c1` [Compound 19, 4-[3-[[3-(2,4-dicarboxyphenoxy)propyl]-dithio]propoxy]-1,3-benzenedicarboxylic acid], the concentration giving a half-maximal response (EC50) (commonly the concentration that produces a half-maximal response) with cortical cell cultures came to 2490 nM.

For `O=C(O)c1ccc(CCS)c(C(=O)O)c1` [Compound 22, 4-(2-mercaptoethyl)-1,3-benzenedicarboxylic acid], in the experiment on cortical cell cultures, the EC50 is 60 nM.

On to `O=C(O)c1cc(OCCCS)cc(C(=O)O)c1` [Compound 36, 5-(3-mercaptopropoxy)-1,3-benzenedicarboxylic acid], for which, in the experiment on cortical cell cultures, the EC50 was found to be 1240 nM.

Turning to `O=C(O)c1cc(C(=O)O)cc(C(=O)NO)c1` [Compound 39, 5-[(hydroxyamino)-carbonyl]-1,3-benzenedicarboxylic acid], the concentration giving a half-maximal response (EC50) in the experiment with cortical cell cultures came to 473 nM.

As to `O=C(O)c1cc(CS)cc(C(=O)O)c1` [Compound 41, 5-mercaptomethyl-1,3-benzenedicarboxylic acid], the EC50 in the experiment on cortical cell cultures came out at 172 nM.

In the case of `O=C(O)CCC(CP(=O)(O)Cc1c(F)c(F)c(F)c(F)c1F)C(=O)O` (centres unmarked) [Compound A, 2-[[(2,3,4,5,6-pentafluorobenzyl)hydroxyphosphinyl]methyl]pentanedioic acid], in the experiment with BB/W diabetic rats [1], the withdrawal latency entry was “longer withdrawal latencies”. In the experiment on STZ-diabetic rats, the “sensory nerve conduction velocity” value is recorded as “significant improvement” and the “motor nerve conduction velocity” value is recorded as “significant improvement”. Besides, in the experiment with BB/W diabetic rats [2], the nerve conduction velocity entry is “significantly less severe nerve conduction deficits”. Moreover, the “hyperalgesic response (withdrawal latency difference score)” value in [3] is “completely reversed”.

`O=C(O)CCC(CP(=O)(O)O)C(=O)O` (centres unmarked) [Compound C, 2-(phosphonomethyl)pentanedioic acid]: the TGF-β1 concentrations result with TGF-β1 [4] is listed as “increased concentrations”. In [5], the “neuroprotective effect in vivo with TGF-β neutralizing antibodies” value is “significantly attenuated”. Further, the “neuroprotective effect with TGF-β neutralizing antibodies added” value in the experiment on ischemic cell cultures (FIG. 3) is given as “blocked”. Also, the “neuroprotective effect with FGF antibody added” value with ischemic cell cultures (FIG. 4) is recorded as “did not block”. In addition, the “difference scores between the two paws (withdrawal latency)” value in [6] is reported as “dramatically normalized”. Also, in the experiment with TGF-β1 [7], the “TGF-β1 levels during occlusion and reperfusion” value was “significant rise”. The TGF-β2 concentrations entry with TGF-β2 is recorded as “increased concentrations”.

With `O=C(O)CCC(CCS)C(=O)O` (centres unmarked) [Compound D, 2-(2-sulfanylethyl)pentanedioic acid], the withdrawal latency result in the experiment with BB/W diabetic rats [1] is on record as “longer withdrawal latencies”. The “motor and sensory nerve conduction velocities” value in the experiment with STZ-diabetic rats (1 mg/kg dose) was “increased”. Also, in the experiment on STZ-diabetic rats, the “sensory nerve conduction velocity” value is on record as “increased” and the “motor nerve conduction velocity” value is recorded as “increased”. Moreover, the nerve conduction velocity result in the experiment with BB/W diabetic rats [2] is listed as “significantly less severe nerve conduction deficits”. For the same compound, the “hyperalgesic response (withdrawal latency difference score)” value in experiment [3] is “completely reversed”.
